Data as given in PMC5131319, “Occurrence, temporal trends, and half-lives of perfluoroalkyl acids (PFAAs) in occupational workers in China” (Scientific Reports, 2016).
Like-named read-outs stand apart in the source and are kept apart here.

Assays:
[1] = fishery employees from Tangxun Lake; cited from earlier work
[2] = parameters: method as in PMID 23980546, PMID 12499116, PMID 20236705; conditions: set value; cited from earlier work
[3] = workers in another fluorochemical plant in China; cited from earlier work
[4] = PFAA concentration in morning urine of occupational workers (HPLC-ESI/MS/MS); format: in vivo, human
Description: (§1) The selected fluorochemical plant (Henxin Chemical Plant) in this study is one of the largest producers of PFOS-related chemicals in China and is located in Yingcheng, Hubei province. Perfluoroalkyl sulfonic acids (PFSAs) and perfluorotertiary amines are synthesized through an electro-chemical fluorination (ECF) process. We collected paired serum and urine samples from the occupational workers in the plant for five consecutive years, and the sampling activities were carried out in Nov. 2008, Nov. 2009, Nov. 2010, Dec. 2011, and Dec 2012, respectively. The Medical Research Ethics Committee, School of Medicine, Jianghan University, approved the ethics of this study, and all methods were performed in accordance with the relevant guidelines and regulations, moreover, all volunteers gave written informed consent. Demographic information of the donors, including gender, age, length of service, and work assignment, was collected with a questionnaire (Table S1). The sampled population included a total of 302 occupational workers, of which there were 89 female and 213 male participants. In total, 302 serum and 274 urine samples were collected.
(§2) The participants were told not to eat breakfast before the sampling, and morning urine samples and blood samples were collected. Serum was separated from the blood by centrifugation at 1100 × g at 4 °C for 10 min and then placed on ice. Serum samples were then transferred to our laboratory on the same day and stored in polypropylene containers at −20 °C until analysis.
(§3) All pre-treatment methods and instrument analysis of PFAAs in serum and urine samples are based on previous studies with minor modifications (see Supplementary Information)[3][31]. Based on the PFAA profiles in environmental matrices around the same plant in our previous study, only 3 main PFAAs, PFHxS, PFOA, and PFOS, were analyzed in the obtained serum and urine samples. Instrumental analysis of the PFAAs was performed by a HPLC-ESI/MS/MS system (HPLC: Waters 2695, MS: Waters Quattro Premier XE). The limits of detection (LODs) of PFHxS, PFOA, and PFOS were 0.020, 0.063, and 0.018 ng mL^−1 for serum samples and 0.008, 0.025, and 0.007 ng mL^−1 for urine samples, respectively. A procedural blank was performed for every batch of seven samples, and all of the blank levels were below the LODs. […] Details of quality assurance and quality control of the chemical analysis can be found in the Supplementary Information.
Urine samples were pretreated by solid phase extraction. Briefly, 1 mL of urine spiked with 5 ng of internal standard was added to a 15 - mL PP tube and diluted with 13 mL water. The solid phase extraction procedure was then performed following the previously described serum extraction procedure.

[5] = Half-life estimated by annual decline rates of serum PFAAs (first-order model); format: in vivo, human
Excerpt: Olsen et al.[21] found linear relationship between the logarithm of serum PFAAs concentration and time, and a first order model was adopted to estimate the half-lives of PFAAs. The elimination of PFAAs in humans was also described with the following equation: […]
If we set C(t) as 1/2C0, then the half-life
where k is the elimination rate constant. We calculated k using two approaches in the present study. In the first approach, k is defined as Cltotal/Vd, where Vd stands for the volume of distribution of PFAAs in the human body. Cltotal represents the total daily PFAAs clearance in the human body; for men and women older than 50, it refers to renal clearance, while for young women, it is defined as the sum of menstrual clearance and renal clearance. To keep consistency with other studies, Vd of PFOS and PFHxS were set at 230 mL kg^−1, and Vd of PFOA was set at 170 mL kg^−1 in this study. In the second approach, k is defined as the average annual decline rates of PFAAs in workers who participated in this study.
Serum PFAAs of workers were sequentially measured for 5 years, and they fluctuated during our sampling period, although different serum PFAAs decreased in certain years. […] For PFOA, 31 out of 42 workers decreased in the period of 2011–2012, and the serum PFOA concentration dropped by 41%. […] We assumed that there were no new inputs of PFAAs in these workers, and thus k in Eq (2) was set as the average annual serum PFAA decline rate. The half-lives of PFHxS, PFOA, and PFOS estimated by Eq (2) were 3.6, 1.7, and 1.9 years.

[6] = PFAA concentration in serum of occupational workers (HPLC-ESI/MS/MS); format: in vivo, human; parameters: Serum PFAA level: unit: ng/mL
Description: as §1, §2, §3

[7] = Fabric finishing agent department, N 8

O=S(=O)(O)C(F)(F)C(F)(F)C(F)(F)C(F)(F)C(F)(F)C(F)(F)F [PFHxS, perfluorohexane sulfonate]
Clrenal, median [1]: 0.012 mL/day/kg
Vd (volume of distribution in the human body) [2]: 0.23 L/kg
Serum concentration, median [3]: 0.98 ng/mL
Urine concentration, mean ([4]; All workers, N 274): 3.9 ng/mL
Urine concentration, median ([4]; All workers, N 274): 1.7 ng/mL
Urine concentration, mean ([4]; Electrolytic department, N 67): 2.3 ng/mL
Urine concentration, median ([4]; Electrolytic department, N 67): 1.3 ng/mL
Urine concentration, mean [4, 7]: 3.5 ng/mL
Urine concentration, median [4, 7]: 2.4 ng/mL
Urine concentration, range [4, 7]: 0.79 to 7.1 ng/mL
Urine concentration, mean ([4]; Management office, N 76): 0.93 ng/mL
Urine concentration, median ([4]; Management office, N 76): 0.37 ng/mL
Urine concentration, mean ([4]; Research building, N 25): 1.9 ng/mL
Urine concentration, median ([4]; Research building, N 25): 0.97 ng/mL
Urine concentration, mean ([4]; Sulfonation department, N 98): 7.1 ng/mL
Urine concentration, median ([4]; Sulfonation department, N 98): 3.7 ng/mL
Annual drop of serum concentration ([5]; 2009 to 2010, 37 workers): 19%
half-life ([5]; human, k = average annual serum decline rate, no new inputs assumed, two time points): 1310 days
Serum concentration, mean ([6]; All workers, N 302): 1855 ng/mL
Serum concentration, median ([6]; All workers, N 302): 764 ng/mL
Serum PFAA level ([6]; Electrolytic Department, length of service 1-3 years): 960
Serum PFAA level ([6]; Electrolytic Department, length of service < 1 year): 197
Serum PFAA level ([6]; Electrolytic Department, length of service >3 years): 1116
Serum concentration, mean ([6]; Electrolytic department, N 74): 1469 ng/mL
Serum concentration, median ([6]; Electrolytic department, N 74): 1011 ng/mL
Serum concentration, range ([6]; Electrolytic department, N 74): 46.6 to 6759 ng/mL
Serum concentration, mean [6, 7]: 1956 ng/mL
Serum concentration, median [6, 7]: 1768 ng/mL
Serum concentration, range [6, 7]: 550 to 4690 ng/mL
Serum PFAA level ([6]; Management Office, length of service 1-3 years): 65.1
Serum PFAA level ([6]; Management Office, length of service < 1 year): 8.5
Serum PFAA level ([6]; Management Office, length of service >3 years): 186
Serum concentration, mean ([6]; Management office, N 92): 331 ng/mL
Serum concentration, median ([6]; Management office, N 92): 169 ng/mL
Serum PFAA level ([6]; Research Building, length of service 1-3 years): 946
Serum PFAA level ([6]; Research Building, length of service < 1 year): 26
Serum PFAA level ([6]; Research Building, length of service >3 years): 607
Serum concentration, mean ([6]; Research building, N 27): 842 ng/mL
Serum concentration, median ([6]; Research building, N 27): 506 ng/mL
Serum concentration, range ([6]; Research building, N 27): 3.0 to 3360 ng/mL
Serum PFAA level ([6]; Sulfonation Department, length of service 1-3 years): 1477
Serum PFAA level ([6]; Sulfonation Department, length of service < 1 year): 1129
Serum PFAA level ([6]; Sulfonation Department, length of service >3 years): 3087
Serum concentration, mean ([6]; Sulfonation department, N 101): 3778 ng/mL
Serum concentration, median ([6]; Sulfonation department, N 101): 2250 ng/mL
Serum concentration, geometric mean ([6]; all occupational workers): 628 ng/mL
Average serum concentration (Average ± SD) ([6]; female workers, n 89): 1,044 ± 1718 ng mL^−1
concentration at 2009 calendar year ([6]; human, serum, 2009, 37 workers, read-out: Serum concentration in workers (decline estimate)): 455 ng/mL
concentration at 2010 calendar year ([6]; human, serum, 2010, 37 workers, read-out: Serum concentration in workers (decline estimate)): 366 ng/mL
concentration at 2008 calendar year ([6]; human, serum, other: occupational exposure, 46 workers sampled at least three times, 2008, read-out: Serum concentration, GM): 328 ng/mL
concentration at 2012 calendar year ([6]; human, serum, other: occupational exposure, 46 workers sampled at least three times, 2012, read-out: Serum concentration, GM): 1670 ng/mL
Average serum concentration (Average ± SD) ([6]; male workers, n 213): 2,191 ± 3,050 ng mL^−1
Serum concentration, GM ([6]; workers with service length 1–3 years): 521 ng/mL
Serum concentration, GM ([6]; workers with service length less than 1 year): 212 ng/mL
Serum concentration, GM ([6]; workers with service length more than 3 years): 830 ng/mL
